Read-outs that look alike come from different tables or passages of the source.
Columns and labels:
SUDHL-4 = assay: Cell cycle profile by FACS (propidium iodide DNA content); assay type: cell-based; settings: SUDHL-4, 48 hr treatment
Experimental: Lymphoma cell line cells were treated with the KSP inhibitors of the invention and analyzed by FACs analysis. Approximately 2×10^5 cells were harvested, cell pellets were washed with cold PBS twice and re-suspended in 500 μL cold PBS. Cells were fixed by adding 8 mL cold 80% ethanol while vortexing slowly. After 15 minutes of incubation fixed cells were washed twice with PBS and cell pellets were re-suspended in 1 mL of PI/RNASE staining buffer (BD Pharmingen™ catalog #550825) and incubated for 15 minutes at 37° C. protected from light. Propidium iodide (PI) is a fluorescent vital dye that stains both DNA and RNA. Therefore the RNA must be removed by digestion with ribonuclease (RNase). Stained cells were passed through a cell strainer into a FACS tube to reduce the number of cell aggregates (BD Falcon #352235) prior to FACS analysis. The DNA content of the fixed and stained cells was analyzed by the BD FACSCalibur flow cytometer using the CellQuest software.
Following mitotic arrest, cells have several options including coming out of arrest and dividing normally, undergoing apoptosis directly, or exiting mitosis without cytokinesis (a phenomenon called mitotic slippage). If cells undergo mitotic slippage, they can enter a pseudo-G1 and then either continue to cycle, senesce, or undergo apoptosis. […]

KB8.5 = assay: CellTiter-Glo proliferation, 72 hours; assay type: cell-based; settings: Homo sapiens; Epidermoid, KB8.5, 72 hours
KMS11-Luc = assay: CellTiter-Glo, hematologic malignancy panel; assay type: cell-based, human; settings: MM; for GI50: Homo sapiens
Excerpt: (§1) Identification of tumor types that are the most sensitive to the KSP inhibitors of the present invention can be accomplished using an unbiased approach that uses several cell-based assays. The assays chosen were as follows: • CellTiter-Glo®. This is an assay designed to measure ATP concentration in a cell culture, and can be correlated to cell number. Briefly CellTiter-Glo® (Promega Corporation) is a homogeneous method using the single CellTiter-Glo® reagent to detect ATP wherein ATP in the assay drives the activity of a thermostable luciferase to create a luminescent signal which can then be measured and correlated with the number of viable cells. Briefly, for adherent cells, 1,000 to 5,000 cells/well were plated in 96-well plates (100 μl/well) and let to adhere for 24 hours before being treated with drug. For non-adherent cells, 1,000 to 10,000 cells/well were plated in 96-well plates (100 μl/well) and immediately treated with drug. Drug dilutions were prepared in DMSO at 1000 times the final concentration. These dilutions were then diluted 1/100 in growth media before being added to the cells (11 μl/well) to achieve the desired final concentration. After 48 h in a 37° C. tissue culture incubator, the plates were processed for the CellTiter-Glo®assay according to the manufacturer's instructions. Protocol for a 72 hour cell proliferation assay: The 72 hour assay was performed the same way as the 48 hour assay except for the following modifications: For adherent cells, 500 to 5,000 cells/well were plated in 96-well plates (90 μl/well cell growth media) and left to adhere for 24 hours before being treated with drug. For non-adherent cells, 1,000 to 10,000 cells/well were plated in 96-well plates (90 μl/well cell growth media) and immediately treated with drug. Data values presented represent the concentration of test compound required for a 50% reduction in growth. • LDH release. The Cytotoxicity Detection KitPLUS (LDH) assay (Roche Diagnostics, Manheim, Germany) measures the amount of LDH released in the media by dying cells; LDH catalyzes the conversion of lactate into pyruvate. The enzymatic reaction is coupled to a chemical reaction that uses a tetrazolium salt to form a formazan that is red and can be detected by its absorbance at 490 nm. This assay measures the amount of cell death after drug treatment. Cells were plated at 10,000 cells/well in 96-well plates (100 μl/well). Adherent cells were let to adhere for 24 hours before being treated with drug, whereas non-adherent cells were immediately treated with drug. Drug dilutions were prepared in DMSO at 1000 times the final concentration. These dilutions were then diluted 1/100 in growth media before being added to the cells (11 μl/well) to achieve the desired final concentration. After 48 h in a 37° C. tissue culture incubator, the plates were processed for the Cytotoxicity Detection KitPLUS (LDH) assay according to the manufacturer's instructions. The media only values were subtracted from all the data points before analysis. Data values presented correspond to the compound concentration wherein LDH output is at half maximal level. • Caspase-Glo® 3/7. The Caspase-Glo® 3/7 Assay (Promega Corporation) is a homogeneous luminescent assay that measures caspase-3/7 activities. The assay provides a proluminescent caspase-3/7 DEVD-aminoluciferin substrate and a thermostable luciferase in a reagent optimized for caspase-3/7 activity, luciferase activity and cell lysis. Adding the single Caspase-Glo® 3/7 Reagent results in cell lysis, followed by caspase cleavage of the substrate. This liberates free aminoluciferin, which is consumed by the luciferase, generating a luminescent signal. The signal is proportional to caspase-3/7 activity. Data values presented correspond to the compound concentration wherein caspase 3/7 activity is at half maximal level. […]

MV4; 11Luc = assay: CellTiter-Glo, hematologic malignancy panel; assay type: cell-based, human; settings: AML; for GI50: Homo sapiens
Excerpt: as §1

MV4; 11 = assay: CellTiter-Glo, hematologic malignancy panel; assay type: cell-based, human; settings: AML; for GI50: Homo sapiens
Excerpt: as §1

RL = assay: CellTiter-Glo, hematologic malignancy panel; assay type: cell-based, human; settings: NHL; for GI50: Homo sapiens
Excerpt: as §1

[1] = test system: cell lines derived from hematological malignancies; assay: CellTiter-Glo, hematologic malignancy panel, mean of panel; assay type: cell-based
Excerpt: Identification of tumor types that are the most sensitive to the KSP inhibitors of the present invention can be accomplished using an unbiased approach that uses several cell-based assays. The assays chosen were as follows: • CellTiter-Glo®. This is an assay designed to measure ATP concentration in a cell culture, and can be correlated to cell number. Briefly CellTiter-Glo® (Promega Corporation) is a homogeneous method using the single CellTiter-Glo® reagent to detect ATP wherein ATP in the assay drives the activity of a thermostable luciferase to create a luminescent signal which can then be measured and correlated with the number of viable cells. Briefly, for adherent cells, 1,000 to 5,000 cells/well were plated in 96-well plates (100 μl/well) and let to adhere for 24 hours before being treated with drug. For non-adherent cells, 1,000 to 10,000 cells/well were plated in 96-well plates (100 μl/well) and immediately treated with drug. Drug dilutions were prepared in DMSO at 1000 times the final concentration. These dilutions were then diluted 1/100 in growth media before being added to the cells (11 μl/well) to achieve the desired final concentration. […] The enzymatic reaction is coupled to a chemical reaction that uses a tetrazolium salt to form a formazan that is red and can be detected by its absorbance at 490 nm. […]

[2] = GI50 in nM, read-out: Log(GI50) (converted)

CC(C)(C)[C@H](c1nc(-c2cc(F)ccc2F)cn1Cc1ccccc1)N(CC[C@H](N)CF)C(=O)CO [Compound IIa]
cell cycle profile (DNA content, FACS) (SUDHL-4): underwent apoptosis after 48 hr treatment | GI50 (KB8.5): 0.5 nM | GI50 (KMS11-Luc; [2]): 0.29 nM | GI50 (KMS11-Luc; read-out: GI50): 0.29 nM | Differential vs mean Log(GI50) (KMS11-Luc): 0.068 | Differential vs mean Log(GI50) (MV4; 11Luc): 0.509 | GI50 (MV4; 11Luc; [2]): 0.105 nM | GI50 (MV4; 11Luc; read-out: GI50): 0.11 nM | Differential vs mean Log(GI50) (MV4; 11): 0.644 | GI50 (MV4; 11; [2]): 0.0769 nM | GI50 (MV4; 11; read-out: GI50): 0.08 nM | GI50 (RL; [2]): 20 nM | GI50 (RL; read-out: GI50): 20 nM | Differential vs mean Log(GI50) (RL): −1.771 | GI50 ([1]; GI50 in nM, read-out: Log(GI50), arithmetic mean of panel (converted)): 0.339 nM | GI50 ([1]; read-out: GI50, geometric mean of panel): 0.34 nM

Source: US8252832B2, “Kinesin inhibitors as cancer therapeutics” (Novartis AG, priority 2007, dated 2012)
